Laboratory results published in US20140178305A1, “IDENTIFICATION AND USE OF ANXIOLYTIC COMPOUNDS” (CALIFORNIA INSTITUTE OF TECHNOLOGY, priority 2012, published 2014).

How the values were obtained:
[1] = system: MRGPRB4+ fibres; experiment: Two-photon in vivo calcium imaging (GCaMP3.0) of central afferent fibres through a spinal cord laminectomy, chemical stimuli; design: species or system mouse; conditions: CNO, mice injected only with GCaMP3.0 viruses (no hM3DREADD)
Description: Mice expressing reporters and/or Cre recombinase targeted to the MrgprB4 locus were generated by homologous recombination in embryonic stem cells, according to standard procedures. Heterozygous neonates from MrgprD-Cre and MrgprB4-Cre mice were injected intraperitoneally with Cre-dependent AAV8 viruses expressing GCaMP3.0 or mGCaMP3.0 or hM3(Gq-coupled) DREADD, and imaged as adults (≧8 weeks old).
Electrophysiology experiments on ex vivo skin-nerve preparations from adult heterozygous Mrgprb4-EGFPf reporter mice were performed as described in Woodbury, et al. J. Comp. Neurol. 436, 304-323 (2001). For calcium imaging, after a dorsal laminectomy the spinal column was stabilized and filled with imaging solution (see below for details). Imaging was performed using a two-photon laser-scanning microscope (Ultima, Prairie Inc.) using an Olympus 40×0.8 N.A. water immersion objective, at 128×128 pixel resolution with an acquisition rate of 8-12 frames per second. Mechanical stimuli were delivered using a custom-modified No. 5 sable paint brush or serrated forceps, in a manner electronically time-stamped to image acquisition, as may be seen in FIGS. 18A-18C and further discussed below. Stimuli were delivered to each mouse in a series of trials, separated by a few minutes; each trial consisted of one or more stimuli delivered typically at intervals of several seconds. Chemical stimuli were delivered to the spinal cord using a Pipetman pipette and to the periphery using a syringe pump. Calcium responses were analysed using custom software written in Matlab (see below for more details). For calculating ΔF/F [(Fav−F0)/F0], F0 is the average of the first ten frames of the recording period.
Mice 2 months or older were sedated by i.p. injection of a mix of ketamine (100 mg/kg), xylazine (15 mg/kg), acepromazine (2.5 mg/kg in 0.9% NaCl). During surgery, body temperature was maintained at 37° C. with a heating blanket.
A dorsal laminectomy was performed mostly at spinal level L2-L4 (but occasionally at L1-L3) as described in Johannssen, et al. J. Physiol. (Lond.) 588:3397-3402 (2010), but without removing the dura. The spinal column was stabilized using Narishige STS-A spinal clamps. In addition a head-holding adaptor from Kopf (923-B Mouse Gas Anaesthesia Head Holder) was used that has installed an anaesthesia/gas mask for positioning the mouse head. In this apparatus the gas is applied through a standard hose barb positioned above the nose on the mask. The inlet fills a large gas chamber around the snout, a second hose barb below the mask is provided for vacuuming off excess, expelled gasses. The animals were maintained under continuous anaesthesia for the duration of the imaging experiments with 1-2% isofluorane or with hourly injections of the above ketamine mix. A well was built around the exposed spinal cord using Gelseal (Amersham Biosciences Corp) and Kwik Sil Adhesive (WPI). Warm imaging solution (in mM: 130 NaCl, 3 KCl, 2.5 CaCl2, 0.6 6H2O.MgCl2, 10 HEPES without Na, 1.2 NaHCO3, 10 glucose, pH7.45 with NaOH) (37° C.) was repeatedly applied to prevent drying and maintain tissue integrity, and to allow the use of immersion objectives. During imaging the body temperature of the animals was maintained at 37° C. with a heating blanket and an air-therm heater (WPI) placed inside the microscope area.
Imaging experiments were performed under a two-photon laser-scanning microscope (Ultima, Prairie Instruments Inc.). Live images were acquired at 8-12 frames per second, at depths below the pia ranging from 100 to 250 μm, using an Olympus 40×0.8 N.A. water immersion objective, at 128×128 pixel resolution with a laser tuned to 940 nm wavelength, and emission filters 525/50 nm and 595/50 nm for green and red fluorescence, respectively. Laser power was adjusted to be 20-25 mW at the focal plane (maximally 35 mW), depending on the imaging depth and level of expression of GCaMP3.0. […]

[2] = system: MRGPRD+ neurons (hM3DREADD); experiment: Conditioned place aversion (CPA) assay with CNO; assay type: in vivo, mouse; conditions: CNO and DREADD, separate experiments, data not shown
Source text: Because our hypothesis is based on the social reward mediated by social contact in juvenile mice, the mice used were approximately 1-month old. After weaning the mice were maintained in social groups and left undisturbed until the start of the CPP assay. The paradigm was completed in 6 days. On the day before pre-testing the mice were socially isolated in their home cage. On day 1 of the procedure each mouse was placed in the central compartment and allowed to explore the entire apparatus freely for 30 min (pre-test). After the pre-test the initial preference of each mouse for a given side compartment was recorded. […] Conditioning was initiated on day 2 and encompassed four sessions performed on four consecutive days. In the first conditioning session mice were injected i.p. with CNO (5 mg kg) (or saline of an equivalent volume for some control mice) and placed for 1 h (based on the observation that CNO effects peak between 45 and 50 min after administration) in the initially non-preferred (I.N.P.) compartment. On day 3, during the second conditioning session, all mice were injected with saline and confined for 1 hr in the opposite (that is, initially preferred, I.P.) compartment. (The second conditioning session was performed the following day as CNO effects last for 9 hrs.) On day 4 and day 5 the first and second conditioning sessions were repeated, respectively. […]

C[N+]1([O-])CCN(C2=Nc3cc(Cl)ccc3Nc3ccccc32)CC1 [CNO, Clozapine-N-oxide]
calcium transients after application to the spinal cord [1]: no CNO responses
conditioned place aversion (CPA) [2]: nor (in separate experiments) conditioned place aversion
